Measurements published in ChEMBL document CHEMBL3862023, “Synthesis of N-aryl and N-arylcarbamoylamino derivatives of 1,3-diazinane-5-carboxamide and their activity against glioblastoma LN-229 cell line” (Bioorg Med Chem, 2016).

Experiments:
[1] = Solubility of the compound in trifluoroacetic acid; assay type: physicochemical
[2] = Solubility of the compound in DMSO/TFA; assay type: physicochemical
[3] = Cytotoxicity against human LN229 cells assessed as concentration required for induction of cell death after 24 hrs by crystal violet staining based light microscopic analysis; assay type: functional, LN-229
[4] = Solubility of the compound in CHCl3/TFA; assay type: physicochemical
[5] = Solubility of the compound in chloroform; assay type: physicochemical
[6] = Solubility of the compound in isopropanol; assay type: physicochemical
[7] = Solubility of the compound in ethanol; assay type: physicochemical
[8] = Solubility of the compound in DMSO; assay type: physicochemical

For `CN1C(=O)NC(=O)C(C(=O)NNC(=O)Nc2ccc(Cl)cc2)C1=O` (centres undefined), the solubility [1] was “Insoluble”, the solubility [2] was “Insoluble” and the Activity [3] was 100 µg/mL. For the same compound, the solubility [4] was “Insoluble”, the solubility [5] was “Insoluble” and the solubility [6] was “Insoluble”. For the same compound, the solubility [7] was “Insoluble” and the solubility [8] was “Insoluble”.

For `CN1C(=O)C(C(=O)NNC(=O)Nc2ccc(O)c([N+](=O)[O-])c2)C(=O)N(C)C1=O`, the solubility [1] was “Insoluble”, the solubility [2] was “Insoluble” and the Activity [3] was 10 µg/mL. The solubility [4] was “Insoluble”, the solubility [5] was “Insoluble” and the solubility [6] was “Insoluble”. For the same compound, the solubility [7] was “Insoluble” and the solubility [8] was “Insoluble”.

With `CN1C(=O)C(C(=O)NNC(=O)Nc2ccc(C#N)cc2)C(=O)N(C)C1=O` the solubility [1] was “Insoluble”, the solubility [2] was “Insoluble” and the Activity [3] was 100 µg/mL. For the same compound, the solubility [4] was “Insoluble”, the solubility [5] was “Insoluble” and the solubility [6] was “Insoluble”. The solubility [7] was “Insoluble” and the solubility [8] was “Insoluble”.

In the case of `O=C(NNC(=O)C1C(=O)NC(=O)N(c2ccccc2)C1=O)Nc1ccc(Cl)c(Cl)c1` (centres undefined), the solubility [1] is reported as “Insoluble”, the solubility [2] is reported as “Insoluble” and the Activity [3] is reported as 100 µg/mL. The solubility [4] was “Insoluble”, the solubility [5] was “Insoluble” and the solubility [6] was “Insoluble”. The solubility [7] was “Insoluble” and the solubility [8] was “Insoluble”.

With `O=C1NC(=O)C(C(=O)NNC(=O)Nc2ccccc2)C(=O)N1` the solubility [1] was “Soluble”, the solubility [2] was “Soluble” and the Activity [3] was 100 µg/mL. The solubility [4] was “Soluble”, the solubility [5] was “Insoluble” and the solubility [6] was “Insoluble”. The solubility [7] was “Insoluble” and the solubility [8] was “Insoluble”.

In the case of `CN1C(=O)C(C(=O)NNC(=O)Nc2ccc(F)cc2)C(=O)N(C)C1=O`, the solubility [1] is reported as “Insoluble”, the solubility [2] is reported as “Insoluble” and the Activity [3] is reported as 100 µg/mL. The solubility [4] was “Insoluble”, the solubility [5] was “Insoluble” and the solubility [6] was “Insoluble”. For the same compound, the solubility [7] was “Insoluble” and the solubility [8] was “Insoluble”.

For `CN1C(=O)NC(=O)C(C(=O)NNC(=O)Nc2ccc(C#N)cc2)C1=O` (centres undefined), the solubility [1] was “Insoluble”, the solubility [2] was “Insoluble” and the solubility [4] was “Insoluble”. For the same compound, the solubility [5] was “Insoluble”, the solubility [6] was “Insoluble” and the solubility [7] was “Insoluble”. The solubility [8] was “Insoluble”.

With `O=C(NNC(=O)C1C(=O)NC(=O)N(c2ccccc2)C1=O)Nc1ccc([N+](=O)[O-])cc1` (centres undefined) the solubility [1] was “Insoluble”, the solubility [2] was “Insoluble” and the Activity [3] was 100 µg/mL. The solubility [4] was “Insoluble”, the solubility [5] was “Insoluble” and the solubility [6] was “Insoluble”. The solubility [7] was “Insoluble” and the solubility [8] was “Insoluble”.

In the case of `N#Cc1ccc(NC(=O)NNC(=O)C2C(=O)NC(=O)NC2=O)cc1`, the solubility [1] is reported as “Soluble”, the solubility [2] is reported as “Soluble” and the solubility [4] is reported as “Soluble”. The solubility [5] was “Insoluble”, the solubility [6] was “Insoluble” and the solubility [7] was “Insoluble”. For the same compound, the solubility [8] was “Insoluble”.

For `CN1C(=O)C(C(=O)NNC(=O)Nc2ccc(O)cc2)C(=O)N(C)C1=O`, the solubility [1] was “Insoluble”, the solubility [2] was “Insoluble” and the Activity [3] was 10 µg/mL. The solubility [4] was “Insoluble”, the solubility [5] was “Insoluble” and the solubility [6] was “Insoluble”. For the same compound, the solubility [7] was “Insoluble” and the solubility [8] was “Insoluble”.

With `O=C1NC(=O)C(C(=O)NNC(=O)Nc2ccc(O)cc2)C(=O)N1` the solubility [1] was “Soluble”, the solubility [2] was “Soluble” and the solubility [4] was “Soluble”. For the same compound, the solubility [5] was “Insoluble”, the solubility [6] was “Insoluble” and the solubility [7] was “Insoluble”. For the same compound, the solubility [8] was “Insoluble”.

In the case of `O=C1NC(=O)C(C(=O)NNC(=O)Nc2ccc(Cl)c(Cl)c2)C(=O)N1`, the solubility [1] is reported as “Soluble”, the solubility [2] is reported as “Soluble” and the solubility [4] is reported as “Soluble”. For the same compound, the solubility [5] was “Insoluble”, the solubility [6] was “Insoluble” and the solubility [7] was “Insoluble”. The solubility [8] was “Insoluble”.

For `O=C1NC(=O)C(C(=O)NNC(=O)Nc2ccc([N+](=O)[O-])cc2)C(=O)N1`, the solubility [1] was “Soluble”, the solubility [2] was “Soluble” and the solubility [4] was “Soluble”. The solubility [5] was “Insoluble”, the solubility [6] was “Insoluble” and the solubility [7] was “Insoluble”. The solubility [8] was “Insoluble”.

In the case of `CN1C(=O)C(C(=O)NNC(=O)Nc2ccc(Cl)cc2)C(=O)N(C)C1=O`, the solubility [1] is reported as “Insoluble”, the solubility [2] is reported as “Insoluble” and the Activity [3] is reported as 10 µg/mL. The solubility [4] was “Insoluble”, the solubility [5] was “Insoluble” and the solubility [6] was “Insoluble”. For the same compound, the solubility [7] was “Insoluble” and the solubility [8] was “Insoluble”.

For `O=C1NC(=O)C(C(=O)NNC(=O)Nc2ccc(O)c([N+](=O)[O-])c2)C(=O)N1`, the solubility [1] was “Soluble”, the solubility [2] was “Soluble” and the solubility [4] was “Soluble”. For the same compound, the solubility [5] was “Insoluble”, the solubility [6] was “Insoluble” and the solubility [7] was “Insoluble”. For the same compound, the solubility [8] was “Insoluble”.

For `O=C(NNC(=O)C1C(=O)NC(=O)N(c2ccccc2)C1=O)Nc1ccc(O)c([N+](=O)[O-])c1` (centres undefined), the solubility [1] was “Insoluble”, the solubility [2] was “Insoluble” and the Activity [3] was 100 µg/mL. The solubility [4] was “Insoluble”, the solubility [5] was “Insoluble” and the solubility [6] was “Insoluble”. For the same compound, the solubility [7] was “Insoluble” and the solubility [8] was “Insoluble”.

In the case of `O=C(NNC(=O)C1C(=O)NC(=O)N(c2ccccc2)C1=O)Nc1ccc(F)cc1` (centres undefined), the solubility [1] is reported as “Insoluble”, the solubility [2] is reported as “Insoluble” and the solubility [4] is reported as “Insoluble”. For the same compound, the solubility [5] was “Insoluble”, the solubility [6] was “Insoluble” and the solubility [7] was “Insoluble”. For the same compound, the solubility [8] was “Insoluble”.

In the case of `CN1C(=O)NC(=O)C(C(=O)NNC(=O)Nc2ccc([N+](=O)[O-])cc2)C1=O` (centres undefined), the solubility [1] is reported as “Insoluble”, the solubility [2] is reported as “Insoluble” and the Activity [3] is reported as 100 µg/mL. For the same compound, the solubility [4] was “Insoluble”, the solubility [5] was “Insoluble” and the solubility [6] was “Insoluble”. The solubility [7] was “Insoluble” and the solubility [8] was “Insoluble”.

For `O=C(NNC(=O)C1C(=O)NC(=O)N(c2ccccc2)C1=O)Nc1ccc(Cl)cc1` (centres undefined), the solubility [1] was “Insoluble”, the solubility [2] was “Insoluble” and the Activity [3] was 100 µg/mL. For the same compound, the solubility [4] was “Insoluble”, the solubility [5] was “Insoluble” and the solubility [6] was “Insoluble”. The solubility [7] was “Insoluble” and the solubility [8] was “Insoluble”.

For `O=C(NNC(=O)C1C(=O)NC(=O)N(c2ccccc2)C1=O)Nc1ccccc1` (centres undefined), the solubility [1] was “Insoluble”, the solubility [2] was “Insoluble” and the solubility [4] was “Insoluble”. The solubility [5] was “Insoluble”, the solubility [6] was “Insoluble” and the solubility [7] was “Insoluble”. For the same compound, the solubility [8] was “Insoluble”.

In the case of `O=C(NNC(=O)C1C(=O)NC(=O)N(c2ccccc2)C1=O)Nc1cccc(O)c1` (centres undefined), the solubility [1] is reported as “Insoluble”, the solubility [2] is reported as “Insoluble” and the solubility [4] is reported as “Insoluble”. The solubility [5] was “Insoluble”, the solubility [6] was “Insoluble” and the solubility [7] was “Insoluble”. The solubility [8] was “Insoluble”.
